Patent US11802128B2, “Azetidine and pyrrolidine PARP1 inhibitors and uses thereof” (Xinthera, Inc., priority 2021, dated 2023)
Read-outs that look alike come from different tables or passages of the source.

Key:
DLD-1 BRCA2(−/−) cells = experiment: Cell growth inhibition assay (CellTiter-Glo cell viability, 7 days); format: cell-based; conditions: Homo sapiens, 168 h
From the text: (§1) The objective of this study is to evaluate the effect of invention compounds on cell proliferation through the cell viability assay in DLD-1 BRCA2(−/−) and parental isogenic pair and MDA-MB-436 (mutated BRCA1) cell lines. The CellTiter-Glo (CTG) based cell viability assay is designed to determine the number of viable cells in the culture because of compound effect, by quantifying ATP, which indicates the presence of metabolically active cells.
(§2) DLD-1 BRCA2(−/−) and parental isogenic pair were cultured in RPMI 1640 supplemented with 10% fetal bovine serum (FBS), and MDA-MB-436 cells were cultured in DMEM supplemented with 10% FBS. Both are culture at 37° C. with 5% CO2. Invention compounds were distributed to the 384 well plate (Corning, 3764) using Echo acoustic liquid handler to form a 1:3 serially diluted final concentration with top dose of 10 or 30 μM. The cells were seeded into the plate in the density of 50 cells/well (DLD-1 parental), 200 cells/well (DLD-1 BRCA2−/−), or 500 cells/well (MDA-MB-436). After a short spun, the cells were cultured in a well moisturized incubator at 37° C. with 5% CO2 for 7 days without disturbance. The cell viability was measured by CellTiter Glo 2.0 assay kit (Promega, G9243), and growth inhibition rate was calculated and plotted against final compound concentration, and the data were fitted in Xfit to generate IC50.

[1] = test system: MDA-MB-436 (mutated BRCA1) cells; experiment: as above; format: cell-based; conditions: Homo sapiens, 168 h, MDA-MB-436, 7 days
From the text: as §1, §2

PARP1 = PARP1 (Homo sapiens (Human), UniProt P09874); experiment: Biochemical fluorescent polarization (FP) assay, displacement of PARPi-FL; format: binding; conditions: 20 nM protein, 3 nM PARPi-FL, 4 h at room temperature
Chain of PARP1 (P09874 whole entry): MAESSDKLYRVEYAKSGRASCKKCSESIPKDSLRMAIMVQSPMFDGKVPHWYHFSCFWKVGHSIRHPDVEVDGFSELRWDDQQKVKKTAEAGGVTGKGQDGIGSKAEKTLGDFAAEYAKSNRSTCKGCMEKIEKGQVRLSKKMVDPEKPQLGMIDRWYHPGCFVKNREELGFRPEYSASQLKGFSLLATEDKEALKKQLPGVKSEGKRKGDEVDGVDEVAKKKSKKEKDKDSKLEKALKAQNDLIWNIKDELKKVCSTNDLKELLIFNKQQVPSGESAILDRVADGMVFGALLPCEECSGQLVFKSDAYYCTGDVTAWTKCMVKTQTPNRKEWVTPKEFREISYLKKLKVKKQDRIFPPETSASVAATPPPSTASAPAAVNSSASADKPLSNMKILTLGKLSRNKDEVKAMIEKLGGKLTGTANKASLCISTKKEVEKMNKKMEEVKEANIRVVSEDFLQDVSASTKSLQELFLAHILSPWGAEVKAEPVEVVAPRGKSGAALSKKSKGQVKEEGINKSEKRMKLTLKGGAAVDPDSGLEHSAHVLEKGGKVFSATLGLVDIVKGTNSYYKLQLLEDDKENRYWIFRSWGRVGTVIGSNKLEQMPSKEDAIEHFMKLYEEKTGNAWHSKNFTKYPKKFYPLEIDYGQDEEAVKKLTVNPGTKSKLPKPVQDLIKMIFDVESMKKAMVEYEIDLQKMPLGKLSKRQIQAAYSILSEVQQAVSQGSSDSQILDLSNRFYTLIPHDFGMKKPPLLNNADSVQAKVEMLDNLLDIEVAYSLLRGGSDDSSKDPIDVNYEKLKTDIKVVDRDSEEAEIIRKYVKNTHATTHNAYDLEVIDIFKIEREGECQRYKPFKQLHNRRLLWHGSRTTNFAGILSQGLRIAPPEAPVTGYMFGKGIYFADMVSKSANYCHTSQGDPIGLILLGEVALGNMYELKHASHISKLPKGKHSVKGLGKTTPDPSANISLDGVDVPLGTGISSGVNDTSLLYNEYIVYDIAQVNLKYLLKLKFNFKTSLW
Protocol: (§3) The assay was performed utilizing the following method:
(§4) 100% DMSO was used for the high (with protein) and low (without protein) control samples. 20 nL of compound or DMSO alone was added to individual assay plate wells.
(§5) PARP1 and PARP2 protein were expressed, purified, and diluted in assay buffer containing 50 mM Tris pH 8.0, 0.001% Triton X-100, 10 mM MgCl2, 150 mM NaCl to a final concentration of 20 nM. The PARPi-FL was then added at a final concentration of 3 nM.
(§6) The assay plate is centrifuged at 1000 rpm for 1 min and incubated for 4 h at room temperature.
(§7) The fluorescent polarization is read using an Envision plate reader using the following settings: […]

PARP2 = PARP2 (Homo sapiens (Human), UniProt Q9UGN5); experiment: as above; format: binding
Chain of PARP2 (Q9UGN5 whole entry): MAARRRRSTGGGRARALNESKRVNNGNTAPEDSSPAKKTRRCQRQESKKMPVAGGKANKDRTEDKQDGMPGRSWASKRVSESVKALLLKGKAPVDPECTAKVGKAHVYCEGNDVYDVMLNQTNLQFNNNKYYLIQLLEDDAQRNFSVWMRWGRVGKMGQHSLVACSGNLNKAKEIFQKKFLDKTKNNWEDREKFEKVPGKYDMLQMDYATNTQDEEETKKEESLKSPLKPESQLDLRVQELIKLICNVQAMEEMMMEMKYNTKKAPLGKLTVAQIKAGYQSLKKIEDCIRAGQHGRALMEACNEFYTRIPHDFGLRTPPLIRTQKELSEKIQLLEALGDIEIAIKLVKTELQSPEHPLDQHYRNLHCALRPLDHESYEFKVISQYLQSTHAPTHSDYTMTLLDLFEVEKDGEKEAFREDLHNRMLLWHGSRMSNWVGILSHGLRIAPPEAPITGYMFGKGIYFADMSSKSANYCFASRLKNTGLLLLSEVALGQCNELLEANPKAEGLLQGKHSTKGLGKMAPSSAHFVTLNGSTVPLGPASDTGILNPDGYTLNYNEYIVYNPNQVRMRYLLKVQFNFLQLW
Protocol: as §3, §4, §5, §6, §7

[2] = 20 nM protein, 3 nM PARPi-FL, 4 h at room temperature, read-out: IC50 FP PARP2

SMILES	EC50 (DLD-1 BRCA2(−/−) cells) [nM]	EC50 [1] [nM]	IC50 (PARP1) [nM]	IC50 (PARP2; [2]) [nM]	IC50 (PARP2) [nM]
CCc1cc2ncc(CN3CC(Nc4ccc(C(=O)NC)nc4)C3)cc2[nH]c1=O [Example 14, 5-({1-[(7-ethyl-6-oxo-5H-1,5-naphthyridin-3-yl)methyl]azetidin-3-yl}amino)-N-methylpyridine-2-carboxamide]	9.8	4.1	5.2	14000	
CCc1cc2ncc(CN3C[C@H](Oc4ccc(C(=O)NC)nc4)[C@H]3C)cc2[nH]c1=O [Example 17, 5-{[(2R,3S)-1-[(7-ethyl-6-oxo-5H-1,5-naphthyridin-3-yl)methyl]-2-methylazetidin-3-yl]oxy}-N-methylpyridine-2-carboxamide]	1.2	0.79	7.3	21000	
CCc1cc2ncc(CN3C[C@H](Oc4ccc(C(=O)NC)nc4)[C@@H]3C)cc2[nH]c1=O [Example 20, 5-(((2S,3S)-1-((7-ethyl-6-oxo-5,6-dihydro-1,5-naphthyridin-3-yl)methyl)-2-methylazetidin-3-yl)oxy)-N-methylpicolinamide]	40	35	5.6	19000	
Cc1cc2ncc(CN3CC[C@@H](Oc4cnc(C(=O)NC5CC5)c(F)c4)C3)cc2[nH]c1=O [Example 26]	55	60	12	> 100000	
CCc1cc2ncc(CN3CC[C@@H](Oc4cnc(C(=O)NC)c(F)c4)C3)cc2[nH]c1=O [Example 27]	19	18	6.7	9100	
CCc1cc2ncc(CN3C[C@H](Oc4ccc(C(=O)NC)nc4)C[C@H]3C)cc2[nH]c1=O [Example 31]	13	31	37	> 100000	
CCc1nc2cc(F)c(CN3CC[C@@H](Oc4ccc(C(=O)NC)nc4)C3)cc2[nH]c1=O [Example 32]	6.4	16	6.8	> 100000	
CCc1cc2ncc(CN3CC[C@@H](Oc4ccc(C(=O)NC5COC5)nc4)C3)cc2[nH]c1=O [Example 33]	4.2	3.7	5.5	33000	
CCc1cc2ncc(CN3C[C@H](Oc4ccc(C#N)cn4)[C@H]3C)cc2[nH]c1=O [Example 34]	150	84	13	12000	
CCc1cc2ncc(CN3C[C@H](Oc4ccc(C#N)nc4)[C@H]3C)cc2[nH]c1=O [Example 36]	12	3.7	5	15000	
Cc1cc2ncc(CN3C[C@H](Oc4ccc(C#N)nc4)[C@H]3C)cc2[nH]c1=O [Example 37]	80	66	4.5	> 100000	
[2H]C([2H])([2H])NC(=O)c1ccc(O[C@H]2CN(Cc3cnc4cc(CC)c(=O)[nH]c4c3)[C@@H]2C)cn1 [Example 39]	1.3	1.1	4.3		5900
CCc1cc2ncc(CN3C[C@H](Oc4ccc(C(=O)NC5COC5)nc4)[C@H]3C)cc2[nH]c1=O [Example 44, 5-(((2R,3S)-1-((7-ethyl-6-oxo-5,6-dihydro-1,5-naphthyridin-3-yl)methyl)-2-methylazetidin-3-yl)oxy)-N-(oxetan-3-yl)picolinamide]	3.5	1.3	6.7	11000	
[2H]C([2H])([2H])NC(=O)c1ccc(O[C@H]2CN(C([2H])([2H])c3cnc4cc(CC)c(=O)[nH]c4c3)[C@@H]2C)cn1 [Example 45]	1.5	0.87	5		6900
CCc1cn2nc(CN3C[C@H](Oc4ccc(C(=O)NC)nc4)[C@H]3C)cc2[nH]c1=O [Example 46]	90	100	9.9	> 100000	
Cc1cc2ncc(CN3C[C@H](Oc4ccc(C#N)cc4)[C@H]3C)cc2[nH]c1=O [Example 47]	100	100	5.8	88000	
CCc1cc2ncc(CN3CC[C@@H](n4ccc5nc(C(=O)NC)ccc54)C3)cc2[nH]c1=O [Example 49]	9.2	9.5	6.3	> 100000	
CNC(=O)c1ccc(O[C@H]2CN(Cc3cnc4cc(C)c(=O)[nH]c4c3)[C@@H]2C)cn1 [Example 50]	5.3	8.7	11	83000	

Continued by falling EC50 (DLD-1 BRCA2(−/−) cells), values first:

EC50 (DLD-1 BRCA2(−/−) cells) [nM]	EC50 [1] [nM]	IC50 (PARP1) [nM]	IC50 (PARP2; [2]) [nM]	SMILES	IC50 (PARP2) [nM]
180	130	5.5	32000	CCc1cc2ncc(CN3CC(n4ccc5nc(C(=O)NC)ccc54)C3)cc2[nH]c1=O [Example 40]	
83	36	6.6	62000	CCc1cc2ncc(CN3CC[C@@](C)(Oc4ccc(C(=O)NC)nc4)C3)cc2[nH]c1=O [Example 12, 5-{[(3R)-1-[(7-ethyl-6-oxo-5H-1,5-naphthyridin-3-yl)methyl]-3-methylpyrrolidin-3-yl]oxy}-N-methylpyridine-2-carboxamide]	
78	140	11	72000	CCc1cc2ncc(CN3CC[C@@H](Oc4ccc(C#N)cn4)C3)cc2[nH]c1=O [Example 29]	
37	27	5.1	16000	CCc1cc2ncc(CN3CC(Oc4ccc(C#N)cc4)C3)cc2[nH]c1=O [Example 22, 4-({1-[(7-ethyl-6-oxo-5H-1,5-naphthyridin-3-yl)methyl]azetidin-3-yl}oxy)benzonitrile]	
36	41	11	25000	CNC(=O)c1ncc(O[C@@H]2CCN(Cc3cnc4cc(C5CC5)c(=O)[nH]c4c3)C2)cc1F [Example 25]	
15	3.3	3.9	> 100000	CCc1cc2ncc(CN3CC[C@@H](Oc4ccc(C(=O)NC)nc4C#N)C3)cc2[nH]c1=O [Example 28]	
15	47	7.7	> 100000	CCc1nc2cc(F)c(CN3CC(Oc4ccc(C(=O)NC)nc4)C3)cc2[nH]c1=O [Example 30]	
13	24	9.1	17000	CCc1cc2ncc(CN3CC(Oc4ccc(C#N)nc4)C3)cc2[nH]c1=O [Example 24]	
9.9	32	3.6	> 100000	CNC(=O)c1ccc(O[C@@H]2CCN(Cc3cnc4c(c3)[nH]c(=O)c3ccoc34)C2)cn1 [Example 35]	
5.7	3.2	6.2	3500	CCc1cc2ncc(CN3C[C@H](Oc4ccc(C#N)cc4)[C@H]3C)cc2[nH]c1=O [Example 48]	
4.4	7.9	4.1	4200	CCc1cc2ncc(CN3C[C@H](Oc4ccc(F)cc4)[C@H]3C)cc2[nH]c1=O [Example 51]	
3.2	3	7.6	8300	CNC(=O)c1ccc(O[C@H]2CN(Cc3cnc4cc(C5CC5)c(=O)[nH]c4c3)[C@@H]2C)cn1 [Example 41]	
2.9	2.3	6.1	10000	CCc1cc2ncc(CN3C[C@H](Oc4cnc(C(=O)NC)c(F)c4)[C@H]3C)cc2[nH]c1=O [Example 38]	
2.1	1.1	5.8	6300	C[C@@H]1[C@@H](Oc2ccc(C(=O)NC3CC3)nc2)CN1Cc1cnc2cc(C3CC3)c(=O)[nH]c2c1 [Example 42]	
1.8	1.2	6.6	14000	CCc1cc2ncc(CN3CC(Oc4ccc(C(=O)NC5CC5)nc4)C3)cc2[nH]c1=O [Example 21, N-cyclopropyl-5-({1-[(7-ethyl-6-oxo-5H-1,5-naphthyridin-3-yl)methyl]azetidin-3-yl}oxy)pyridine-2-carboxamide]	
1.1	0.46	6.6	2900	CCc1cc2ncc(CN3C[C@H](Oc4ccc(C(=O)NC5CC5)nc4)[C@H]3C)cc2[nH]c1=O [Example 43, N-cyclopropyl-5-{[(2R,3S)-1-[(7-ethyl-6-oxo-5H-1,5-naphthyridin-3-yl)methyl]-2-methylazetidin-3-yl]oxy}pyridine-2-carboxamide]	
